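Dose response: 5 concentrations. Exposure: 48 h. Format: 96-well plates. Endpoint: linear interpolation; highest concentration if not reached. GI50: concentration for 50% inhibition of growth.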 Calls of active or inactive are those of the source. Cut-off read from the data, not from the text of the source: active = GI50 up to about 1.1 µM and inactive = higher.
Legend:
Test in all cases: NCI tumour cell line growth inhibition, 48 h
[1] = system: OVCAR-5
[2] = system: Malme-3M
[3] = system: TK-10
[4] = system: RXF 393
[5] = system: RPMI-8226
[6] = system: A498
[7] = system: UO-31
[8] = system: K562
[9] = system: SN12C
[10] = system: SNB-19
[11] = system: SW-620
[12] = system: IGROV-1
[13] = system: NCI-H23
[14] = system: A549
[15] = system: HCC 2998
[16] = system: SK-MEL-5
[17] = system: NCI-H460
[18] = system: KM12
[19] = system: OVCAR-3
[20] = system: HCT-15
[21] = system: SF-539
[22] = system: MCF7
[23] = system: HCT-116
[24] = system: HL-60
[25] = system: CAKI-1
[26] = system: 786-0
[27] = system: SF-295
[28] = system: CCRF-CEM
[29] = system: Hs-578T
[30] = system: UACC-62
[31] = system: EKVX
[32] = system: COLO 205
[33] = system: ACHN
[34] = system: OVCAR-8
[35] = system: UACC-257
[36] = system: OVCAR-4
[37] = system: U-251
[38] = system: SK-MEL-2
[39] = system: HOP-62
[40] = system: SF-268
[41] = system: SR
[42] = system: MOLT-4
[43] = system: LOX IMVI
[44] = system: SK-MEL-28
[45] = system: HOP-92
[46] = system: NCI-H522
[47] = system: DU-145
[48] = system: MDA-MB-231
[49] = system: NCI-H226
[50] = system: MDA-MB-435
[51] = system: BT-549
[52] = system: M14
[53] = system: HT-29
[54] = system: NCI/ADR-RES
[55] = system: PC-3
[56] = system: SNB-75
[57] = system: SK-OV-3
[58] = system: MDA-N

CCOC(=O)CCC(NC(=O)Cc1ccc(Oc2nc3ccccc3nc2-c2cccs2)cc1)C(=O)OCC (stereo unspecified)
GI50 [1]: 8.97 µM (inactive) | GI50 [2]: 22.7 µM (inactive) | GI50 [3]: 19.2 µM (inactive) | GI50 [4]: 2.3 µM (inactive) | GI50 [5]: > 100 µM (inactive) | GI50 [6]: 19.4 µM (inactive) | GI50 [7]: 22.6 µM (inactive) | GI50 [8]: > 100 µM (inactive) | GI50 [9]: 8.89 µM (inactive) | GI50 [10]: 9.29 µM (inactive) | GI50 [11]: > 100 µM (inactive) | GI50 [12]: 47.5 µM (inactive) | GI50 [13]: 61.9 µM (inactive) | GI50 [14]: 7.19 µM (inactive) | GI50 [15]: 32.2 µM (inactive) | GI50 [16]: > 100 µM (inactive) | GI50 [17]: 34.4 µM (inactive) | GI50 [18]: > 100 µM (inactive) | GI50 [19]: 4.07 µM (inactive) | GI50 [20]: > 100 µM | GI50 [21]: 5.14 µM (inactive) | GI50 [22]: > 100 µM (inactive) | GI50 [23]: 6.15 µM (inactive) | GI50 [24]: > 100 µM (inactive) | GI50 [25]: 39.3 µM (inactive) | GI50 [26]: 2.49 µM (inactive) | GI50 [27]: 40.9 µM (inactive) | GI50 [28]: > 100 µM (inactive) | GI50 [29]: 13.6 µM (inactive) | GI50 [30]: 38.4 µM (inactive) | GI50 [31]: 26.1 µM (inactive) | GI50 [32]: > 100 µM (inactive) | GI50 [33]: 2.44 µM (inactive) | GI50 [34]: 1.82 µM (inactive) | GI50 [35]: > 100 µM (inactive) | GI50 [36]: 13.5 µM (inactive) | GI50 [37]: 11.4 µM (inactive) | GI50 [38]: 56.5 µM (inactive) | GI50 [39]: 1.73 µM (inactive) | GI50 [40]: 1.64 µM (inactive) | GI50 [41]: > 100 µM (inactive) | GI50 [42]: > 100 µM (inactive) | GI50 [43]: 20.7 µM (inactive) | GI50 [44]: > 100 µM (inactive) | GI50 [45]: 14 µM (inactive) | GI50 [46]: 52 µM (inactive) | GI50 [47]: 7.45 µM (inactive) | GI50 [48]: 4.08 µM (inactive) | GI50 [49]: 16.6 µM (inactive) | GI50 [50]: 88.7 µM (inactive) | GI50 [51]: 29.7 µM (inactive) | GI50 [52]: > 100 µM (inactive) | GI50 [53]: > 100 µM (inactive) | GI50 [54]: 4.95 µM (inactive) | GI50 [55]: 80.2 µM (inactive)

C#CCn1c(=O)c(I)cn(/C(=C\C(=O)OCC)C(=O)OCC)c1=O
GI50 [1]: 20.6 µM (inactive) | GI50 [6]: 16.7 µM (inactive) | GI50 [10]: 26.9 µM (inactive) | GI50 [14]: 34.8 µM (inactive) | GI50 [56]: 17.1 µM (inactive) | GI50 [17]: 20.3 µM (inactive) | GI50 [18]: 17.3 µM (inactive) | GI50 [21]: 18.4 µM (inactive) | GI50 [27]: 18.7 µM (inactive) | GI50 [29]: 49.8 µM (inactive) | GI50 [30]: 16.9 µM (inactive) | GI50 [37]: 15.7 µM (inactive) | GI50 [38]: 18.9 µM (inactive) | GI50 [39]: 17.4 µM (inactive) | GI50 [57]: 17.9 µM (inactive) | GI50 [47]: 17.5 µM (inactive) | GI50 [49]: 17.9 µM (inactive) | GI50 [50]: 17.1 µM (inactive) | GI50 [54]: 26.1 µM (inactive)

CC(C)(C)OC(=O)[C@H]1CCC(=S)N1Cc1ccccc1
GI50 [1]: > 100 µM (inactive) | GI50 [2]: > 100 µM (inactive) | GI50 [3]: > 100 µM (inactive) | GI50 [4]: > 100 µM (inactive) | GI50 [5]: > 100 µM (inactive) | GI50 [6]: > 100 µM (inactive) | GI50 [7]: > 100 µM (inactive) | GI50 [9]: > 100 µM (inactive) | GI50 [10]: > 100 µM (inactive) | GI50 [11]: > 100 µM (inactive) | GI50 [12]: > 100 µM (inactive) | GI50 [13]: > 100 µM (inactive) | GI50 [14]: > 100 µM (inactive) | GI50 [15]: > 100 µM (inactive) | GI50 [16]: > 100 µM (inactive) | GI50 [58]: > 100 µM (inactive) | GI50 [56]: > 100 µM (inactive) | GI50 [17]: > 100 µM (inactive) | GI50 [18]: > 100 µM (inactive) | GI50 [19]: > 100 µM (inactive) | GI50 [20]: > 100 µM | GI50 [21]: > 100 µM (inactive) | GI50 [22]: > 100 µM (inactive) | GI50 [23]: > 100 µM (inactive) | GI50 [24]: > 100 µM (inactive) | GI50 [25]: > 100 µM (inactive) | GI50 [26]: > 100 µM (inactive) | GI50 [27]: > 100 µM (inactive) | GI50 [28]: > 100 µM (inactive) | GI50 [30]: > 100 µM (inactive) | GI50 [31]: > 100 µM (inactive) | GI50 [32]: > 100 µM (inactive) | GI50 [33]: > 100 µM (inactive) | GI50 [34]: > 100 µM (inactive) | GI50 [35]: > 100 µM (inactive) | GI50 [36]: > 100 µM (inactive) | GI50 [37]: > 100 µM (inactive) | GI50 [38]: > 100 µM (inactive) | GI50 [41]: > 100 µM (inactive) | GI50 [57]: > 100 µM (inactive) | GI50 [42]: > 100 µM (inactive) | GI50 [43]: > 100 µM (inactive) | GI50 [44]: > 100 µM (inactive) | GI50 [45]: > 100 µM (inactive) | GI50 [46]: > 100 µM (inactive) | GI50 [47]: > 100 µM (inactive) | GI50 [48]: > 100 µM (inactive) | GI50 [49]: > 100 µM (inactive) | GI50 [50]: > 100 µM (inactive) | GI50 [52]: > 100 µM (inactive) | GI50 [54]: > 100 µM (inactive) | GI50 [55]: > 100 µM (inactive)

Source: ChEMBL document CHEMBL1201862, “PubChem BioAssay data set” (2004)
